SMILES strings stand for the structures.

The source of these data is patent US20060167057A1, “Compounds for the treatment of CNS and amyloid associated diseases” (priority 2004, published 2006).

The assay has as its target T1, L1 transport system (large neutral amino acid carrier, L1-system carrier) (Rattus norvegicus, UniProt Q63016).
T1 construct: functionality of their endogenous transporters such as the L1-system carrier; endogenous in cells; host or cells: rat primary cerebrovascular (brain microcapillary) endothelial cells, RBEC
The assay can be described thus: Competitive binding assay to the brain L1 transport system (L-[U-14C]phenylalanine on rat primary cerebrovascular endothelial cells). Here is the method: Compound samples in PBS (without Ca^+2, Mg^+2)-glucose 30 mM-HEPES 10 mM—DMSO 1% as prepared in Example 1 were thawed and left for at least 30 minutes at 20-23° C. before preparation of the following sub-dilutions for the competitive binding assay: • 200 μL of the stock solution were added to 800 μL PBS (without Ca^+2, Mg^+2)-Glucose-HEPES-1% DMSO (PBSD-1) [diluted 1:5 for a final 1:5 dilution] • 100 μL (1/5 dilution above) were added to 900 μL PBSD-1 [diluted 1:10 for a final 1:50 dilution] • 100 μL (1/50 dilution above) were added to 900 μL PBSD-1 [diluted 1:10 for a final 1:500 dilution]
These sub-dilutions were used immediately or stored overnight at 4° C. before the competitive binding assay. A volume of 45 μL of each of the compound dilutions (1:5, 1:50, 1:500) in PBSD-1 was added to the appropriate wells in the dilution plate.
Brains from sixty 24-day-old rats were dissected individually on a sterile lint moistened with ice cold Hanks' balanced salt solution (Gibco BRL, Grand Island, N.Y.) containing 10 mM HEPES (medium 1) supplemented with 0.1% BSA. Cerebellum, striatum, optic nerves, and brain stem (white matter) were removed. After a mid-sagittal section of the brain, the meninges and leptomeningeal debris were removed by rolling a sterile dry cotton swab on the cortices. (Ichikawa N, Naora K, Hirano H, Hashimoto M, Masumura S, and Iwamoto K (1996). Isolation and primary culture of rat cerebral microvascular endothelial cells for studying drug transport in vitro. J Pharmacol Toxicol Meth 36: 45-52.). Clean cortices were minced in pieces of ≈2 mm^3 in 15 mL of ice-cold medium 1-0.1% BSA. The preparation was divided into 4 sterile pre-weighed tubes and centrifuged at 330× g at 20-25° C. for 5 min. Tubes were weighed and pre-warmed (37° C.) and medium 1 with 0.5% BSA containing 0.3% collagenase and 10 μg/mL DNAse 1 (Roche, Laval, Quebec, Canada) were added to each tube (1 mL/g of tissue).
The brain-collagenase mixture was vigorously agitated in a water bath at 37° C. for 90 min. Fifteen min before the end of the digestion, the tissue was homogenized using a 10-mL pipette until a creamy mixture was obtained (≈20 aspirations). Cells were washed by adding medium 1 with 0.1% BSA to the homogenate (26 mL/tube) and centrifuged at 100× g at 20-25° C. for 7 min. This washing step was repeated 3 more times, once for 5 min and twice for 3 min. Each pellet was re-suspended in 25 mL of a 15% dextran solution prepared in medium 1 with 0.1% BSA and centrifuged at 3200× g at 4° C. for 25 min to isolate vessels from neural tissue and dextran layers. Vascular pellets were re-suspended in 5 mL Ca^++—Mg^++-free-medium 1 with 0.1% BSA (medium 2) at 20-25° C. and transferred in a 50-mL tube. Remaining vessels were collected by rinsing the tubes and pooling the rinsing suspension. (Rupnick M A, Carey A, and Williams S K (1988). Phenotypic diversity in cultured cerebral microvascular endothelial cells in vitro. Cell Develop Biol 24: 435-444.)
The vascular preparation was filtered and rinsed (20 mL of medium 2) through a sterile 355-μm mesh. The 355-μm filtrate was sequentially filtered twice (20 mL of medium 2) through sterile 112-μm meshes and rinsed (Stanimirovic D B, Wong J, Ball R, and Durkin J P (1995). Free radical-induced endothelial membrane dysfunction at the site of the blood-brain barrier: relationship between lipid peroxidation, Na,K-ATPase activity, and ^51Cr release. Neurochem Res 20:1417-1427.) and the latter filtrate was filtered and rinsed through a sterile 20-μm mesh. A final step of filtration and rinse was repeated through a double layer of 20-μm meshes. All 20-μm meshes, which retained the microcapillaries, were then transferred into a 50-mL tube containing 20 mL of a 0.1% collagenase/dispase (Roche) solution in medium 2 supplemented with 10 μg/mL DNAse 1 and 0.147 μg/mL tosyl-lysine-chloromethyl-ketone (Sigma Chemical Co., Oakville, Ontario, Canada) (medium 3).

T1 sequence (Q63016 whole entry): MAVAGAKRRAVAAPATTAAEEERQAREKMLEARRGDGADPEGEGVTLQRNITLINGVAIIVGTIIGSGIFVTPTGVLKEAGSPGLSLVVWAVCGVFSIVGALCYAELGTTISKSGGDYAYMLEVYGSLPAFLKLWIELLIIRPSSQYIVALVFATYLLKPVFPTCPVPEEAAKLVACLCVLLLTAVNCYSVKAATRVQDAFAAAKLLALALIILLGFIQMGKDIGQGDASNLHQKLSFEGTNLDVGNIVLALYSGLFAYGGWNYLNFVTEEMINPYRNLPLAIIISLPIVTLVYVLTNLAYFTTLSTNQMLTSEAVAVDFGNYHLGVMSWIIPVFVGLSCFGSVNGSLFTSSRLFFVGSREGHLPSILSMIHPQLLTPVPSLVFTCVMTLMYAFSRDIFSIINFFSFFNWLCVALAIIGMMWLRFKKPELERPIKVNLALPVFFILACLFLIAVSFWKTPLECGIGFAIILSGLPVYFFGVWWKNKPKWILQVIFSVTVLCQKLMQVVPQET
T1 sequence (Q794F9 whole entry partner): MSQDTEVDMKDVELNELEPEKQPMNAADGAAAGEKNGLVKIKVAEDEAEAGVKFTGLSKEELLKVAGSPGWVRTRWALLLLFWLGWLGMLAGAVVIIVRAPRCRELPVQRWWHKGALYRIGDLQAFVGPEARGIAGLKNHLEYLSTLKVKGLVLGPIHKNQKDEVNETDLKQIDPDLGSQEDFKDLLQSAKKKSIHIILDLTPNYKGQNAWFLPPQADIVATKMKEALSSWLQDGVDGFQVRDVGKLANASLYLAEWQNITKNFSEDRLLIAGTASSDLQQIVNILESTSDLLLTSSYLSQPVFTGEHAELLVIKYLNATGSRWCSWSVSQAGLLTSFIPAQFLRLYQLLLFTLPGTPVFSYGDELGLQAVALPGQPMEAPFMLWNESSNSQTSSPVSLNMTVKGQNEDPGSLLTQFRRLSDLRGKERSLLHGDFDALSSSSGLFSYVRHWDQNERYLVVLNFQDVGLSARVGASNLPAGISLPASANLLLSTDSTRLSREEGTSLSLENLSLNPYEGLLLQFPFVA

On to `NC(Cc1cccc(CN2CCN(c3cccc(Cl)c3)CC2)c1)C(=O)O` (stereo not drawn) [Compound 71], for which the “Comparison with the Binding of Phenylalanine” value (shortened to “Comparison with the Binding”) runs as follows: (10^−4 M) 0 (X < 0 Rank 0); (10^−5 M) 0 (X < 0 Rank 0); (10^−6 M) 1 (0 < X < 10 Rank 1).
Take `CCOC(=O)c1c[nH]c(Sc2cccc(-c3cccc(CC(N)C(=O)O)c3)c2)nc1=O` (stereo not drawn) [Compound 72]: the “Comparison with the Binding” value (10^−4 M) is reported as 1 (0 < X < 10 Rank 1), the “Comparison with the Binding” value (10^−5 M) is 2 (10 < X < 20 Rank 2) and the “Comparison with the Binding” value (10^−6 M) is given as 1 (0 < X < 10 Rank 1).
For the compound `CN(C)CCn1nnnc1SCc1cccc(CC(N)C(=O)O)c1` (stereo not drawn) [Compound 73], the “Comparison with the Binding” value runs as follows: (10^−4 M) 1 (0 < X < 10 Rank 1); (10^−5 M) 3 (X > 20 Rank 3); (10^−6 M) 1 (0 < X < 10 Rank 1).
In the case of `NC(Cc1cccc(-c2cccc(Sc3nc(-c4ccccc4)c(-c4ccccc4)[nH]3)c2)c1)C(=O)O` (stereo not drawn) [Compound 74], the “Comparison with the Binding” value runs as follows: (10^−4 M) 0 (X < 0 Rank 0); (10^−5 M) 1 (0 < X < 10 Rank 1); (10^−6 M) 1 (0 < X < 10 Rank 1).
Take `NC(Cc1cccc(CN2CCN(c3ccc(F)cc3)CC2)c1)C(=O)O` (stereo not drawn) [Compound 75]: the “Comparison with the Binding” value runs as follows: (10^−4 M) 0 (X < 0 Rank 0); (10^−5 M) 0 (X < 0 Rank 0); (10^−6 M) 1 (0 < X < 10 Rank 1).
Turning to `COc1ccc2[nH]c(Sc3cccc(-c4cccc(CC(N)C(=O)O)c4)c3)nc2c1` (stereo not drawn) [Compound 76], the “Comparison with the Binding” value is 0 (X < 0 Rank 0) (10^−4 M), 0 (X < 0 Rank 0) (10^−5 M) and 1 (0 < X < 10 Rank 1) (10^−6 M).
For `NC(Cc1cccc(CSc2nc3cc([N+](=O)[O-])ccc3[nH]2)c1)C(=O)O` (stereo not drawn) [Compound 79], the “Comparison with the Binding” value is reported as 2 (10 < X < 20 Rank 2) (10^−4 M), 3 (X > 20 Rank 3) (10^−5 M) and 0 (X < 0 Rank 0) (10^−6 M).
As to `Cc1nnc(SCc2cccc(CC(N)C(=O)O)c2)s1` (stereo not drawn) [Compound 81], the “Comparison with the Binding” value runs as follows: (10^−4 M) 2 (10 < X < 20 Rank 2); (10^−5 M) 3 (X > 20 Rank 3); (10^−6 M) 0 (X < 0 Rank 0).
Taken in the same sequence, the figures for `Cn1cnnc1Sc1cccc(-c2cccc(CC(N)C(=O)O)c2)c1` (stereo not drawn) [Compound 82] were 2 (10 < X < 20 Rank 2), 3 (X > 20 Rank 3) and 1 (0 < X < 10 Rank 1).
Consider `NC(Cc1cccc(CN2CCN(c3cccc(Cl)c3)CC2)n1)C(=O)O` (stereo not drawn) [Compound 86], for which the “Comparison with the Binding” value by setting is: (10^−4 M) 1 (0 < X < 10 Rank 1); (10^−5 M) 2 (10 < X < 20 Rank 2); (10^−6 M) 1 (0 < X < 10 Rank 1).
Turning to `CCOC(=O)c1c[nH]c(SCc2ccc(-c3ccc(CC(N)C(=O)O)cc3)cc2)nc1=O` (stereo not drawn) [Compound 87], the “Comparison with the Binding” value was 2 (10 < X < 20 Rank 2) (10^−4 M), 3 (X > 20 Rank 3) (10^−5 M) and 3 (X > 20 Rank 3) (10^−6 M).
As for `CN(C)CCn1nnnc1SCc1cccc(CC(N)C(=O)O)n1` (stereo not drawn) [Compound 88], the “Comparison with the Binding” value is listed as 1 (0 < X < 10 Rank 1) (10^−4 M), 1 (0 < X < 10 Rank 1) (10^−5 M) and 1 (0 < X < 10 Rank 1) (10^−6 M).
As for `NC(Cc1ccc(-c2ccc(CSc3nc(-c4ccccc4)c(-c4ccccc4)[nH]3)cc2)cc1)C(=O)O` (stereo not drawn) [Compound 89], the “Comparison with the Binding” value (10^−4 M) is reported as 1 (0 < X < 10 Rank 1), the “Comparison with the Binding” value (10^−5 M) was 1 (0 < X < 10 Rank 1) and the “Comparison with the Binding” value (10^−6 M) is 1 (0 < X < 10 Rank 1).
In the case of `COc1ccc2[nH]c(SCc3ccc(-c4ccc(CC(N)C(=O)O)cc4)cc3)nc2c1` (stereo not drawn) [Compound 91], the “Comparison with the Binding” value was 1 (0 < X < 10 Rank 1) (10^−4 M), 1 (0 < X < 10 Rank 1) (10^−5 M) and 0 (X < 0 Rank 0) (10^−6 M).
`Cc1nc(SCc2cccc(CC(N)C(=O)O)n2)sc1CC(=O)O` (stereo not drawn) [Compound 92]: the “Comparison with the Binding” value (10^−4 M) is 0 (X < 0 Rank 0), the “Comparison with the Binding” value (10^−5 M) was 0 (X < 0 Rank 0) and the “Comparison with the Binding” value (10^−6 M) is 1 (0 < X < 10 Rank 1).
As to `NC(Cc1ccc(-c2ccc(CSc3ncccc3C(=O)O)cc2)cc1)C(=O)O` (stereo not drawn) [Compound 93], the “Comparison with the Binding” value is recorded as 0 (X < 0 Rank 0) (10^−4 M), 0 (X < 0 Rank 0) (10^−5 M) and 1 (0 < X < 10 Rank 1) (10^−6 M).
With `NC(Cc1cccc(CSc2nc3cc([N+](=O)[O-])ccc3[nH]2)n1)C(=O)O` (stereo not drawn) [Compound 94], the “Comparison with the Binding” value (10^−4 M) was 1 (0 < X < 10 Rank 1), the “Comparison with the Binding” value (10^−5 M) is recorded as 1 (0 < X < 10 Rank 1) and the “Comparison with the Binding” value (10^−6 M) is 1 (0 < X < 10 Rank 1).
`NC(Cc1ccc(-c2ccc(CSc3ncccn3)cc2)cc1)C(=O)O` (stereo not drawn) [Compound 95]: the “Comparison with the Binding” value was 2 (10 < X < 20 Rank 2) (10^−4 M), 3 (X > 20 Rank 3) (10^−5 M) and 2 (10 < X < 20 Rank 2) (10^−6 M).
As to `Cc1nnc(SCc2cccc(CC(N)C(=O)O)n2)s1` (stereo not drawn) [Compound 96], the “Comparison with the Binding” value is, setting by setting: (10^−4 M) 0 (X < 0 Rank 0); (10^−5 M) 1 (0 < X < 10 Rank 1); (10^−6 M) 1 (0 < X < 10 Rank 1).
Consider `Cn1cnnc1SCc1ccc(-c2ccc(CC(N)C(=O)O)cc2)cc1` (stereo not drawn) [Compound 97], for which the “Comparison with the Binding” value is, setting by setting: (10^−4 M) 2 (10 < X < 20 Rank 2); (10^−5 M) 3 (X > 20 Rank 3); (10^−6 M) 2 (10 < X < 20 Rank 2).
`NC(Cc1cccc(CN2CCN(c3ccccn3)CC2)n1)C(=O)O` (stereo not drawn) [Compound 98]: the “Comparison with the Binding” value (10^−4 M) is 0 (X < 0 Rank 0), the “Comparison with the Binding” value (10^−5 M) is listed as 1 (0 < X < 10 Rank 1) and the “Comparison with the Binding” value (10^−6 M) is 0 (X < 0 Rank 0).
As to `NC(Cc1ccc(-c2ccc(CN3CCN(c4ncccn4)CC3)cc2)cc1)C(=O)O` (stereo not drawn) [Compound 99], the “Comparison with the Binding” value (10^−4 M) is reported as 0 (X < 0 Rank 0), the “Comparison with the Binding” value (10^−5 M) is recorded as 0 (X < 0 Rank 0) and the “Comparison with the Binding” value (10^−6 M) is 1 (0 < X < 10 Rank 1).
Regarding `NC(Cc1cccc(-c2cccc(N3CCN(c4cccc(Cl)c4)CC3)c2)c1)C(=O)O` (stereo not drawn) [Compound 101], the “Comparison with the Binding” value (10^−4 M) was 2 (10 < X < 20 Rank 2), the “Comparison with the Binding” value (10^−5 M) was 3 (X > 20 Rank 3) and the “Comparison with the Binding” value (10^−6 M) was 3 (X > 20 Rank 3).
Turning to `N#CC1(c2ccccc2)CCN(Cc2cccc(CC(N)C(=O)O)c2)CC1` (stereo not drawn) [Compound 102], the “Comparison with the Binding” value (10^−4 M) is given as 1 (0 < X < 10 Rank 1), the “Comparison with the Binding” value (10^−5 M) was 1 (0 < X < 10 Rank 1) and the “Comparison with the Binding” value (10^−6 M) is on record as 0 (X < 0 Rank 0).
